Source: ChEMBL document CHEMBL1201862, “PubChem BioAssay data set” (2004)
Activity calls are given as the source filed them.

What was measured:
[1] = microbe, parasite or virus in culture; type: functional; conditions: Mycobacterium tuberculosis
[2] = target: NACHT, LRR and PYD domains-containing protein 3 (Homo sapiens, UniProt Q96P20); experiment: NALP3 inhibitors in yeast, dose response, luminescent (AID 488799); type: functional
[3] = target: Serine/threonine-protein phosphatase PP1-alpha catalytic subunit (Homo sapiens, UniProt P62136); experiment: PP1 phosphatase inhibitors, dose response, biochemical, fluorescence (AID 2403);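 also: phosphatase turnover of OMFP into fluorescent 3-O-methylfluorescein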
Chain of Serine/threonine-protein phosphatase PP1-alpha catalytic subunit (P62136 whole entry): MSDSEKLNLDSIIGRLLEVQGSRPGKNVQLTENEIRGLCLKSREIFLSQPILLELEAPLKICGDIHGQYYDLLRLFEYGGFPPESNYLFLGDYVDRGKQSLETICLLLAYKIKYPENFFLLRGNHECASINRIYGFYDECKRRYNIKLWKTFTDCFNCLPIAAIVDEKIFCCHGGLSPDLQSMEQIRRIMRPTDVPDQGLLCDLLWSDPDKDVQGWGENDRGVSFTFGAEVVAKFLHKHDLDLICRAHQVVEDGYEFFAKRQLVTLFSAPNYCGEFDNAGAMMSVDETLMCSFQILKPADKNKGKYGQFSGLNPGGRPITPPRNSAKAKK

[4] = Shn3 3'UTR reporter inhibitors, dose response, cell-based, Clone20 osteoblasts, firefly luciferase, cherry-picked (AID 624132); type: functional;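 also: firefly luciferase luminescence from reporter carrying the Shn3 3'UTR in osteoblasts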
[5] = target: Serine/threonine-protein phosphatase (Homo sapiens, UniProt Q9BPW0); experiment: Counterscreen for inhibitors of PP1: fluorescence-based biochemical high throughput dose response assay to identify inhibitors of Protein Phosphatase 5 (PP5). [Related pubchem assays: 2034 (Summary (PP5 inhibitors)), 1987 (PP5 inhibitors in singlate), 2235 (PP1 inhibitors in singlate)]
[6] = HepG2 cell cytotoxicity, dose response, cytotoxicity control for Shn3 inhibitor project, CellTiter-Glo, cherry-picked (AID 624134); type: functional, cell-based
[7] = inhibitors of intracellular T. cruzi replication, confirmation, NIH3T3 host cells, beta-gal luminescence (AID 2044); type: functional, cell-based;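 also: intracellular parasites grown in NIH/3T3 mouse fibroblasts as host cells; luminescent beta-galactosidase reporter signal from transgenic T. cruzi replicating inside host cells; inhibitors lower the luminescence signal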
[8] = cytotoxicity toward NIH3T3 fibroblasts, dose response, counter-screen, cell-based, ATP luminescence, mouse fibroblasts (AID 2010); type: functional;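 also: cells exposed to compound for about 90 hours before reading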
[9] = control 3'UTR Renilla luciferase suppression, dose response, counter-screen for Shn3 inhibitor project, cell-based, Clone20-Shn3RL, cherry-picked (AID 624133); type: functional
[10] = target: Dual specificity protein phosphatase 3 (Homo sapiens, UniProt P51452); experiment: SAR VHR1 Fluorescent Assay for In Vitro dose response studies Set 2. [Related pubchem assays (depositor defined):AID1654, AID1661, AID1878]; type: functional
Chain of Dual specificity protein phosphatase 3 (P51452 whole entry): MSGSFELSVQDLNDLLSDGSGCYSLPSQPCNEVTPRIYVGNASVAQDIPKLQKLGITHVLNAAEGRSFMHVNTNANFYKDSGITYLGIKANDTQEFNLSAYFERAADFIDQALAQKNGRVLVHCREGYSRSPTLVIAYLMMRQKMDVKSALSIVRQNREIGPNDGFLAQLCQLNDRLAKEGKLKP

[11] = target: T1, Tyrosine-protein phosphatase non-receptor type 7 (Homo sapiens, UniProt P35236); experiment: SAR analysis of chemical inhibitors of HePTP using a Fluorescent assay - Set 2. [Related pubchem assays (depositor defined):AID1059, AID1077, AID1661, AID2085, AID521]; type: functional
T1 sequence (P35236 whole entry): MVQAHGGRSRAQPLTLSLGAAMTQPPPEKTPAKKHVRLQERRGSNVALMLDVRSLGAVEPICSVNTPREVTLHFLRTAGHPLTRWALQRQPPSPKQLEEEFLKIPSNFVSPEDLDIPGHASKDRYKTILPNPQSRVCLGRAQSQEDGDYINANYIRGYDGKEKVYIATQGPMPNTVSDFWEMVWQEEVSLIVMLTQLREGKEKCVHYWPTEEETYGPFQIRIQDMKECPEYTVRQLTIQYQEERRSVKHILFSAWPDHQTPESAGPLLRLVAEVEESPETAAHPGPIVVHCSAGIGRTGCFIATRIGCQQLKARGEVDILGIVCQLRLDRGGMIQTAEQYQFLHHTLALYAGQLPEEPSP

[12] = target: T2, Mannose-6-phosphate isomerase (Homo sapiens, UniProt P34949); experiment: PMI enzyme inhibitors, confirmation, biochemical, fluorescence intensity (AID 1535)
T2 sequence (P34949 whole entry): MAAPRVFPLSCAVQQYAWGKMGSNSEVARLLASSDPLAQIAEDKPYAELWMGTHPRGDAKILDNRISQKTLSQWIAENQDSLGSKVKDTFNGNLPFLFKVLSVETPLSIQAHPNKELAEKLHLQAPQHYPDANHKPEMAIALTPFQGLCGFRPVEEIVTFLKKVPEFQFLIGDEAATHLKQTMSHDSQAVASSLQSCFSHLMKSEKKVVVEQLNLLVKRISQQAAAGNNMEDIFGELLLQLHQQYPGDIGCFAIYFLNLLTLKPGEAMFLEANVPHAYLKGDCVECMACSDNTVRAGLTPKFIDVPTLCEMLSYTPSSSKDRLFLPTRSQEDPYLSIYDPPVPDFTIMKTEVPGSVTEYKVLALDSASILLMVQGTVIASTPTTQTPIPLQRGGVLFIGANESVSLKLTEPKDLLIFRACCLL

Phosphomannomutase 2 = Phosphomannomutase 2 (Homo sapiens, UniProt O15305); experiment: Counter screen SAR assay for PMM2 inhibitors via a fluorescence intensity assay. [Related pubchem assays (depositor defined):AID1545, AID1574]
Chain of Phosphomannomutase 2 (O15305 whole entry): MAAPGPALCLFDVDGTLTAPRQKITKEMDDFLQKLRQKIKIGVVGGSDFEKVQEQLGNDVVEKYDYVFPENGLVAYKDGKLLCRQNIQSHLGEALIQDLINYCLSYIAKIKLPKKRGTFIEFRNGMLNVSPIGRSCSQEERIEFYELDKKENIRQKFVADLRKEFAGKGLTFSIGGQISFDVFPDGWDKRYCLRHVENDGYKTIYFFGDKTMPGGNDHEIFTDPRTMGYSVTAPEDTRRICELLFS

[13] = target: Phosphoethanolamine/phosphocholine phosphatase (Homo sapiens, UniProt Q8TCT1); experiment: SAR assay for compounds that inhibit PHOSPHO1. [Related pubchem assays (depositor defined):AID1545, AID1565, AID1574]
Protein Wnt-3a = Protein Wnt-3a (Mus musculus, UniProt P27467); experiment: Wnt3a-driven reporter signaling inhibition, dose response, selectivity assay for Gli-SUFU antagonist project, Wnt-LIGHT cells, luminescence (AID 651570); type: functional; conditions: read-out: IC50_Mean;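 also: Wnt-LIGHT reporter cells stimulated with conditioned medium from Wnt3a-producing cells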
Chain of Protein Wnt-3a (P27467 whole entry): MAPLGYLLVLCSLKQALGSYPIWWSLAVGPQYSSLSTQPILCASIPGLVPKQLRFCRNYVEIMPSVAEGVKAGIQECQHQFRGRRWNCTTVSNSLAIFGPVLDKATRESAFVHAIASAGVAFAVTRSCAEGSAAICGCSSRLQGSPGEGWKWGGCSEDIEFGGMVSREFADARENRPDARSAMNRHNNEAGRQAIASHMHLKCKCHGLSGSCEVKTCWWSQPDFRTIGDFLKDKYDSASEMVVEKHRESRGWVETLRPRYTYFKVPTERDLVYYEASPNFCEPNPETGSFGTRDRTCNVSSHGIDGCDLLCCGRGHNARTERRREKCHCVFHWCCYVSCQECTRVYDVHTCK

Hexokinase-1 = Hexokinase-1 (Homo sapiens, UniProt P19367); experiment: hexokinase 1 activators, dose response, selectivity assay for HKDC1 activator project, biochemical (AID 504762); type: functional
Chain of Hexokinase-1 (P19367 whole entry): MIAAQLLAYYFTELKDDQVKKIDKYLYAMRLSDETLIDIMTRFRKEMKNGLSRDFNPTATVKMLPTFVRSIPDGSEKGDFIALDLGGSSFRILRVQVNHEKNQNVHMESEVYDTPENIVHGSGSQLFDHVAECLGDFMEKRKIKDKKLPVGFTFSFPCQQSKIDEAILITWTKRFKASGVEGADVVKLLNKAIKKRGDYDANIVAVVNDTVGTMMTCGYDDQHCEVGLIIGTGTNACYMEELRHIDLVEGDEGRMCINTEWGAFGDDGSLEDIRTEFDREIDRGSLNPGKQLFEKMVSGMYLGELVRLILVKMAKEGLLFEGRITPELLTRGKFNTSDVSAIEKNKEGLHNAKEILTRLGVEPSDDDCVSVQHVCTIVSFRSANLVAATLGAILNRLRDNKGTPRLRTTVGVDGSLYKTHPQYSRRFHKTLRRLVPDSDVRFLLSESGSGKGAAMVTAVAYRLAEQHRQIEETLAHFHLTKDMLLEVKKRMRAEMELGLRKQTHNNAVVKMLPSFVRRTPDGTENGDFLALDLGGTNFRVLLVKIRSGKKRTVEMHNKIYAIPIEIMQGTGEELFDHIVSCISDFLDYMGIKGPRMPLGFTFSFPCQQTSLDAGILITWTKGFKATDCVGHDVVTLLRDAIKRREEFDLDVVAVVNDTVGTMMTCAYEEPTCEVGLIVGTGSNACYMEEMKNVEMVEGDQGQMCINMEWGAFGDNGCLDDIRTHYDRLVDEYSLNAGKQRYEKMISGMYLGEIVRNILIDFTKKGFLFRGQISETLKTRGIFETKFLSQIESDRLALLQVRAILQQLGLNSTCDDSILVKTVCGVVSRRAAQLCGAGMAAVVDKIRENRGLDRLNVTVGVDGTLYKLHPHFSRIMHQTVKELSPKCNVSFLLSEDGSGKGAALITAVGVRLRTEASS

[14] = target: T3, Kappa-type opioid receptor (Homo sapiens, UniProt P41145); type: functional
T3 sequence (P41145 whole entry): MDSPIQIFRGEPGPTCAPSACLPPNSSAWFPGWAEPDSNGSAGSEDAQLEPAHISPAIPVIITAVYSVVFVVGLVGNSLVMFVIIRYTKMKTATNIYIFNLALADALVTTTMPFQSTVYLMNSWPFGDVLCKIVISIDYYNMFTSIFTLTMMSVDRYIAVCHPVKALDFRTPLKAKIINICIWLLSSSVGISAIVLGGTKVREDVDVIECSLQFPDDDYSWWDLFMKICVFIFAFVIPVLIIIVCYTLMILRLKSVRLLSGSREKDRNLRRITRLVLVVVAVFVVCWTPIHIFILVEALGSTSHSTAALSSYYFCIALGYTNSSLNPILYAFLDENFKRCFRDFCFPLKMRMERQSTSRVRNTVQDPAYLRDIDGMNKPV

[15] = target: 72 kDa type IV collagenase (Homo sapiens, UniProt P08253); experiment: Dose Response validation of uHTS RPN11 inhibitor hits using a MMP-2 Fluorescence assay.; type: functional
Hexokinase HKDC1 = target: T4, Hexokinase HKDC1 (Homo sapiens, UniProt Q2TB90); experiment: HKDC1 hexokinase activators, dose response, biochemical, W721R variant (AID 504730); type: functional
T4 sequence (Q2TB90 whole entry): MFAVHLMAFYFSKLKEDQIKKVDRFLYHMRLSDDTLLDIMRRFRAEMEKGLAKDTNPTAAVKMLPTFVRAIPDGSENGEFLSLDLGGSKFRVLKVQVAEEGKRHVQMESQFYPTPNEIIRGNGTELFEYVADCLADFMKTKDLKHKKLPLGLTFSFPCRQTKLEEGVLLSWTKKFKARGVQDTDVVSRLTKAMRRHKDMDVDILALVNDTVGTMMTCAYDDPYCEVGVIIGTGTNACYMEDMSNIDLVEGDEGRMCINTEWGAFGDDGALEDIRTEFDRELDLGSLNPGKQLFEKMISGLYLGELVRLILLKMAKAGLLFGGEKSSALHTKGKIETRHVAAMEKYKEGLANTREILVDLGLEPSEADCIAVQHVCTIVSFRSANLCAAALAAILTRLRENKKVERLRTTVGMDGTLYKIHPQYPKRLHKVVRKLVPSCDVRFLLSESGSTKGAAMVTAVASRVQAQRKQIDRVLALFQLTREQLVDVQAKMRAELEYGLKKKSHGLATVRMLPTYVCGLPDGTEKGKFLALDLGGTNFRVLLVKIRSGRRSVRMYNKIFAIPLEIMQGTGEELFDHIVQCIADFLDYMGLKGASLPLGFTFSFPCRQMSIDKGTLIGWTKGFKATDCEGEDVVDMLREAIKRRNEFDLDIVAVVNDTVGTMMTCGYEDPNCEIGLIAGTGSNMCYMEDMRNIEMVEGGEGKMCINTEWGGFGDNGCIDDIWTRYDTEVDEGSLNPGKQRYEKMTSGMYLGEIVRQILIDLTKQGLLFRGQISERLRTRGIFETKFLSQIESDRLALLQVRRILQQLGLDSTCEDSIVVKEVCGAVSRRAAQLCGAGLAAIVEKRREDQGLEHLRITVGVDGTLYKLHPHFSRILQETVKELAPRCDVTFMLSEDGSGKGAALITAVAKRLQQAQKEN

[16] = target: T3, Kappa-type opioid receptor; type: functional; remark: listed apart in the source
Beta-galactosidase [17] = target: T5, Beta-galactosidase (Escherichia coli, UniProt Q8VNN2); type: functional
T5 sequence (Q8VNN2 whole entry): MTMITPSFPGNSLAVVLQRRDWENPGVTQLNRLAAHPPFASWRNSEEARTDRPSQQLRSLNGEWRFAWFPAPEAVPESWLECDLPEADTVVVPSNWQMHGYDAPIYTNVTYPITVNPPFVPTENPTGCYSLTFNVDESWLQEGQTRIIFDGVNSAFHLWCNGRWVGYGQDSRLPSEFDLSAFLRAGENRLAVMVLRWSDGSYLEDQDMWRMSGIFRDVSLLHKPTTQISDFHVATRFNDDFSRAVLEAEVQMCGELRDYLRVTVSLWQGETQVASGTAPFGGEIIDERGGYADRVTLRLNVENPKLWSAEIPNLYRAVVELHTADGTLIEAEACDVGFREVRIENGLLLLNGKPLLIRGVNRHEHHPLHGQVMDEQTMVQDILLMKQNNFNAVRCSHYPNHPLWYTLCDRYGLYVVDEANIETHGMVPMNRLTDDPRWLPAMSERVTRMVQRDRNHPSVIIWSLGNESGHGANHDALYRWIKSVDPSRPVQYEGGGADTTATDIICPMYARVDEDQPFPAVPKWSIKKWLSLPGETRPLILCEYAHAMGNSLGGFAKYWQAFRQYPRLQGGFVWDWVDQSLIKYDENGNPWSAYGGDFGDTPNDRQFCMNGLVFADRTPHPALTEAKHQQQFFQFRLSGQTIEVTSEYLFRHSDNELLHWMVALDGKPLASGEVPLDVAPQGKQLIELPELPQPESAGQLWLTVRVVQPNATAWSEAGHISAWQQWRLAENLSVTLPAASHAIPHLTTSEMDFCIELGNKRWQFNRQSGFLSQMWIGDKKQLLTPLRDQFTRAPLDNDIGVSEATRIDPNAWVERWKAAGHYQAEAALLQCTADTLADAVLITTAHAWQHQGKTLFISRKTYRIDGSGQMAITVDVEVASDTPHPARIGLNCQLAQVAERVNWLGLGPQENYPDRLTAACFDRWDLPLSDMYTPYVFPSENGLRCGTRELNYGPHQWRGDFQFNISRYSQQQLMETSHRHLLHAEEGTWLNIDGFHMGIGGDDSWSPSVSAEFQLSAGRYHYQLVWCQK

[18] = target: 26S proteasome non-ATPase regulatory subunit 14 (Homo sapiens, UniProt O00487); experiment: inhibition of proteasome subunit RPN11 – biochemical, fluorescence polarization, uHTS hits, confirmation (AID 602368); type: functional
Chain of 26S proteasome non-ATPase regulatory subunit 14 (O00487 whole entry): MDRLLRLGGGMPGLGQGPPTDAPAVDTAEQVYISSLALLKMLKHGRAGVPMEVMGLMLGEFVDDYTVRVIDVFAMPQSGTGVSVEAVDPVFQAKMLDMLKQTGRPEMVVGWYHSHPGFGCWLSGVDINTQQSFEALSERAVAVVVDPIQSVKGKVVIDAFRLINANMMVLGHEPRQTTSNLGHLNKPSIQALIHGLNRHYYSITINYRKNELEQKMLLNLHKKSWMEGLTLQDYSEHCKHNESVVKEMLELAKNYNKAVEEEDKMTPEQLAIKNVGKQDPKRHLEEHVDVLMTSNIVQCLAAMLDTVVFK

[19] = target: T6, Type-1 angiotensin II receptor (Homo sapiens, UniProt P30556); experiment: AT1 receptor antagonists, dose response, selectivity assay for APJ receptor antagonist project, cell-based, uHTS hits (AID 463214); type: functional;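 also: antagonist potency against angiotensin II stimulated AT1 response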
T6 sequence (P30556 whole entry): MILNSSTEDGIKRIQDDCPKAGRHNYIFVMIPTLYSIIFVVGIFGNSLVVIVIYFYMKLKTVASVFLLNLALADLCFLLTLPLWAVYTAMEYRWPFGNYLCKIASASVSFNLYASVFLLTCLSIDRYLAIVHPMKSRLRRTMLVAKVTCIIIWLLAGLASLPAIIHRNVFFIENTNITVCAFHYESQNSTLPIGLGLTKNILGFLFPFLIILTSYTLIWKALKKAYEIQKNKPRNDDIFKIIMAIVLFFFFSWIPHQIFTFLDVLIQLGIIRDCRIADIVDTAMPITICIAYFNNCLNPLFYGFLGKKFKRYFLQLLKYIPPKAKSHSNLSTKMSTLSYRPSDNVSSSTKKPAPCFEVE

Prothrombin = Prothrombin (Bos taurus, UniProt P00735); experiment: thrombin inhibition, dose response, biochemical, fluorescence polarization, uHTS hits (AID 602369); type: functional
Beta-galactosidase [20] = target: T5, Beta-galactosidase; experiment: PubChem AID 485352; type: functional
Aminopeptidase N = Aminopeptidase N (Plasmodium falciparum FcB1/Columbia, UniProt O96935); experiment: P. falciparum M1AAP inhibitors, biochemical, fluorogenic H-Leu-NHMec substrate, 1536-well (AID 1445); design: species or system Plasmodium falciparum 3D7, 3D7

Chain of NACHT, LRR and PYD domains-containing protein 3 (Q96P20 whole entry, the tested form may be a part): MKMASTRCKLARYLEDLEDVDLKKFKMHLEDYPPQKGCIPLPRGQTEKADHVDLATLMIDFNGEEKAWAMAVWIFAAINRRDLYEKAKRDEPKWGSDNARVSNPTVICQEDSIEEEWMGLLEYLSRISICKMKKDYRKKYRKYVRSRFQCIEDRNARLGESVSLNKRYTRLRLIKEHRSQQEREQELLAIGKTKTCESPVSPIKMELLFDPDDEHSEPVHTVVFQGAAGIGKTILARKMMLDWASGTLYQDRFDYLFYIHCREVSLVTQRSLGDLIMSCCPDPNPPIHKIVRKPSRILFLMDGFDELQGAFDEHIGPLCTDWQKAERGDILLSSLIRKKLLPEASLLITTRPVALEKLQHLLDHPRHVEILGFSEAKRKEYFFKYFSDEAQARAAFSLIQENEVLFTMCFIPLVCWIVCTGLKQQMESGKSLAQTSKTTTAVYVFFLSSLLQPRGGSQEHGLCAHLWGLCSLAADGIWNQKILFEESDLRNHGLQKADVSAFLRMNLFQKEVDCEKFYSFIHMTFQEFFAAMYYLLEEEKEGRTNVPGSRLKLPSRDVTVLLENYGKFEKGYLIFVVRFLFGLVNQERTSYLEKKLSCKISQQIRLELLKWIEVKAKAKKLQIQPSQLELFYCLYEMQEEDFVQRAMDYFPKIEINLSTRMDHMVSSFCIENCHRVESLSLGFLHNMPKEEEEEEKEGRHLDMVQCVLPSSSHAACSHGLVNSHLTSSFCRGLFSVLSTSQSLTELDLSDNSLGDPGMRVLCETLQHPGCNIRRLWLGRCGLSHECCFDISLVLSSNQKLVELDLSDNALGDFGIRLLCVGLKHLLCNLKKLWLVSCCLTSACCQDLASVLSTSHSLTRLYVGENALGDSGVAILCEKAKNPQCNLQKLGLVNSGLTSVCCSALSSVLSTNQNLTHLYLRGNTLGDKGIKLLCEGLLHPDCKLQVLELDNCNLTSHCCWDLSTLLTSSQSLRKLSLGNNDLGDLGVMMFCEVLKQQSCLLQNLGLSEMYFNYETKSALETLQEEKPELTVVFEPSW

With `O=C(NCCC1=CCCCC1)c1c(O)nc2sccn2c1=O` the CC50 [1] was 13.8 µM (active) and the IC50 [2] was 3.8 µM (active).
In the case of `CCOC(=O)c1cnc(-n2nc(C)cc2C)nc1NCc1ccc2c(c1)OCO2`, the IC50 [3] is reported as 5.21 µM (active), the AC50 [4] is reported as 8.74 µM (active) and the IC50 [5] is reported as > 67 µM (not active). For the same molecule, the AC50 [6] was 63 µM (active), the EC50 [7] was 2.36 µM (active) and the EC50 [8] was > 60 µM (not active). For the same molecule, the AC50 [9] was 16.1 µM (active).
For `Oc1ccc(C(=S)NCc2ccc(F)c(C(F)(F)F)c2)cc1`, the IC50 [10] was 40.9 µM (active) and the IC50 [11] was 30.9 µM (active).
For `O=c1c2ccc([N+](=O)[O-])cc2sn1-c1cc(C(F)(F)F)ccc1Cl`, the IC50 [12] was > 50 µM (inactive), the IC50 (Phosphomannomutase 2) was > 100 µM (inactive) and the IC50 [13] was 0.252 µM (active).
In the case of `CC(=O)/C(=N\Nc1ccc(Cl)cc1Cl)Sc1cccc2cccnc12`, the IC50 (Protein Wnt-3a) is reported as 11.4 µM (active), the EC50 (Hexokinase-1) is reported as > 80 µM (inactive) and the IC50 [14] is reported as > 32 µM. The IC50 [15] was > 100 µM (inactive), the EC50 (Hexokinase HKDC1) was 15.5 µM (active) and the IC50 [16] was 9.32 µM (active). The EC50 (Beta-galactosidase [17]) was > 31.5 µM (inactive), the EC50 [7] was 0.289 µM (active) and the EC50 [8] was 26.7 µM (active). For the same molecule, the IC50 [18] was 32.2 µM (active), the IC50 [19] was 10.6 µM (active) and the IC50 (Prothrombin) was > 100 µM (inactive). The EC50 (Beta-galactosidase [20]) was > 40 µM (inactive).
In the case of `CC(C)Oc1ccc(C(=O)N/N=C/c2ccc(-c3ccc(S(=O)(=O)Nc4ncccn4)cc3)o2)cc1`, the IC50 (Aminopeptidase N) is reported as 23.1 µM (active).
